In US20250161212A1, “LIQUID PHARMACEUTICAL FORMULATION OF OMEPRAZOLE OR ESOMEPRAZOLE” (ALKALOID AD SKOPJE, priority 2022, published 2025):

Assay: Stability study of esomeprazole sodium dissolved in DMSO stored at 25° C. (impurities)
Format: physicochemical
Description: Example 9—Stability Study Stability results for esomeprazole sodium dissolved in DMSO stored at 25° C.: • Key: • Imp D: omeprazole impurity D: [drawing 3] • RRT: Relative retention time.

[1] = 1.5 months, second table, Imp-s > 0.02%
[2] = 3 months, second table, Imp-s > 0.02%
[3] = 5 months, second table, Imp-s > 0.02%
[4] = 9 months, second table, Imp-s > 0.02%
[5] = 13 months, second table, Imp-s > 0.02%
[6] = Initial, second table, Imp-s > 0.02%
[7] = in DMSO, 25° C., 1.5 months, first table
[8] = in DMSO, 25° C., 5 months, first table
[9] = in DMSO, 25° C., Initial, first table

Total impurities (1.5 months, second table): 0.14%
Imp D (omeprazole impurity D) [1]: 0.03%
impurity RRT 1.23 [1]: 0.03%
Total impurities (3 months, second table): 0.17%
Imp D (omeprazole impurity D) [2]: 0.03%
impurity RRT 1.23 [2]: 0.03%
Total impurities (5 months, second table): 0.16%
Imp D (omeprazole impurity D) [3]: 0.03%
impurity RRT 1.17 [3]: 0.03%
Total impurities (9 months, second table): 0.25%
Imp D (omeprazole impurity D) [4]: 0.03%
impurity RRT 0.53 [4]: 0.03%
impurity RRT 1.23 [4]: 0.03%
impurity RRT 1.31 [4]: 0.03%
Total impurities (13 months, second table): 0.36%
Imp D (omeprazole impurity D) [5]: 0.03%
impurity RRT 0.54 [5]: 0.04%
impurity RRT 0.90 [5]: 0.04%
impurity RRT 1.23 [5]: 0.03%
impurity RRT 1.31 [5]: 0.04%
impurity RRT 1.32 [5]: 0.03%
Total impurities (Initial, second table): 0.12%
Imp D (omeprazole impurity D) [6]: 0.03%
impurity RRT 1.23 [6]: 0.03%
Imp D (omeprazole impurity D) [7]: Imp D = 0.03%
Total impurities [7]: Total = 0.14%
impurity RRT 1.23 [7]: RRT 1.23 = 0.03%
Imp D (omeprazole impurity D) [8]: Imp D = 0.03%
Total impurities [8]: Total = 0.15%
impurity RRT 0.57 [8]: RRT 0.57 = 0.02%
impurity RRT 1.14 [8]: RRT 1.14 = 0.02%
impurity RRT 1.17 [8]: RRT 1.17 = 0.03%
impurity RRT 1.23 [8]: RRT 1.23 = 0.02%
Imp D (omeprazole impurity D) [9]: Imp D = 0.03%
Total impurities [9]: Total = 0.12%
impurity RRT 1.19 [9]: RRT 1.19 = 0.02%
impurity RRT 1.23 [9]: RRT 1.23 = 0.03%
SMILES: COc1ccc2nc([S@@+]([O-])Cc3ncc(C)c(OC)c3C)[nH]c2c1 (single isomer, unassigned) [esomeprazole sodium]
